# Results from patent publication US20100273789A1, “AMINOACYL PRODRUGS” (BAYER SCHERING PHARMA AKTIENGESELLSCHAFT, priority 2007, published 2010).
# Assay: Determination of the solubility
# Format: physicochemical
# Conditions: in water and physiological media
# Protocol: The test substance is suspended in water or dilute hydrochloric acid (pH 4). This suspension is shaken at room temperature for 24 h. After ultracentrifugation at 224 000 g for 30 min, the supernatant is diluted with DMSO and analyzed by HPLC. A two-point calibration plot of the test compound in DMSO is used for quantification.
# Agilent 1100 with DAD (G1315A), quat. pump (G1311A), autosampler CTC HTS PAL, degasser (G1322A) and column thermostat (G1316A); column: Zorbax Extend-C18 3.5μ; temperature: 40° C.; mobile phase A: water+5 ml of perchloric acid/liter, mobile phase B: acetonitrile; flow rate: 0.7 ml/min; gradient: 0-0.5 min 98% A, 2% B; ramp 0.5-4.5 min 10% A, 90% B; 4.5-6 min 10% A, 90% B; ramp 6.5-6.7 min 98% A, 2% B; 6.7-7.5 min 98% A, 2% B.
compound,measurement,value
"O=C(NC[C@H]1CN(c2ccc(N3CCOCC3=O)cc2F)C(=O)O1)c1ccc(Cl)s1 [compound (A), 5-Chloro-N-({(5S)-3-[2-fluoro-4-(3-oxomorpholin-4-yl)phenyl]-2-oxo-1,3-oxazolidin-5-yl}methyl)thiophene-2-carboxamide]",solubility,limited solubility
